# Results: ChEMBL document CHEMBL1201862, “PubChem BioAssay data set” (2004)
# Activity calls are given as the source filed them.
# Legend:
# [1] = intracellular Trypanosoma cruzi inhibitors in host cells – cell-based, plate reader, cherry-pick samples, set 3, dose response (AID 651818); format: functional;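 also: compounds incubated with infected cells for about four days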
# Protein skinhead-1 = biological target: T1, Protein skinhead-1 (Caenorhabditis elegans, UniProt P34707); format: functional
# T1 sequence (P34707 whole entry): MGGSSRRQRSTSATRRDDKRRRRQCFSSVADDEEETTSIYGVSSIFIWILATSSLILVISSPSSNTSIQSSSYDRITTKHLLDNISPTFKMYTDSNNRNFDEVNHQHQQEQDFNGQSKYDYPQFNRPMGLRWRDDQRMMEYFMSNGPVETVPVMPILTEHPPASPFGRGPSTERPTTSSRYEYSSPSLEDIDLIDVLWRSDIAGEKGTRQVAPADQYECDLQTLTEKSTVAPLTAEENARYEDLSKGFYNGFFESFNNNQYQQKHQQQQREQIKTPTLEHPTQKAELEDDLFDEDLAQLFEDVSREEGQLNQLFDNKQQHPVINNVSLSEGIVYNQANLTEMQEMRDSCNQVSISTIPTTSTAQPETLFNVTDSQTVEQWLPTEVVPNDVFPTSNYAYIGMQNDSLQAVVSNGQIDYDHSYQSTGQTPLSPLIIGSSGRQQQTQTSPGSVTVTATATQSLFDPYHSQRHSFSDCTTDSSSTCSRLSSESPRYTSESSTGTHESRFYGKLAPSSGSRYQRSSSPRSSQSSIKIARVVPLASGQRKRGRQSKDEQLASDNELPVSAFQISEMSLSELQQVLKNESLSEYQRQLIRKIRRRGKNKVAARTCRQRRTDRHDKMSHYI
# [2] = biological target: T2, Zinc finger protein mex-5 (Caenorhabditis elegans, UniProt Q9XUB2); assay: MEX-5/TCR-2 RNA interaction inhibitors, dose response, biochemical, C. elegans, fluorescence polarization (AID 1960)
# T2 sequence (Q9XUB2 whole entry): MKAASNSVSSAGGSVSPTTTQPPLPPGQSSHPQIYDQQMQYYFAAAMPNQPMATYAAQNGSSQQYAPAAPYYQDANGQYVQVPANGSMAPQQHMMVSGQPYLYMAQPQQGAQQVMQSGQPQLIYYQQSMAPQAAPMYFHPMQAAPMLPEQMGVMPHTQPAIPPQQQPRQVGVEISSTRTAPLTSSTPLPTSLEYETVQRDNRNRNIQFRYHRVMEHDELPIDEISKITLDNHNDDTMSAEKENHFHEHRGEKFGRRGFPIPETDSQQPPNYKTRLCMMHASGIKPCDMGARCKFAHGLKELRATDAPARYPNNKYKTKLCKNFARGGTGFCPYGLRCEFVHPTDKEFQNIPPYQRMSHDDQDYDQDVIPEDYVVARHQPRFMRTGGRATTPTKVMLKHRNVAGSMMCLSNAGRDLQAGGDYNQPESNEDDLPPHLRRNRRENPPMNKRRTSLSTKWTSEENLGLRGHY
# [3] = biological target: T3, Corticotropin-releasing factor receptor 2/Corticotropin-releasing factor-binding protein (Homo sapiens, UniProt P24387+Q13324); assay: activators of CRF receptor 2 with binding protein – uHTS hits, confirmation (AID 602473); format: functional; details: read-out: EC50_Mean
# T3 sequence (Q13324 whole entry): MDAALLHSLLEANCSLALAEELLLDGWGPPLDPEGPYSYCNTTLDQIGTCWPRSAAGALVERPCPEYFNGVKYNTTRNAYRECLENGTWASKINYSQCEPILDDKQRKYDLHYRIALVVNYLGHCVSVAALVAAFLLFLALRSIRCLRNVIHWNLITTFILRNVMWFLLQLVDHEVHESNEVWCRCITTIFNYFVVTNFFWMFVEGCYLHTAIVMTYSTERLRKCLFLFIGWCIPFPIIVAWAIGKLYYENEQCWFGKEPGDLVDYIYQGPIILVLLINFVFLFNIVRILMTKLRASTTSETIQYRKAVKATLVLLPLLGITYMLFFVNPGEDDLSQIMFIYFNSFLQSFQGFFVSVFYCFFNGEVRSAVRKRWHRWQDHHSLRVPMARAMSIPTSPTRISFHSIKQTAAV
# T3 sequence (P24387 whole entry): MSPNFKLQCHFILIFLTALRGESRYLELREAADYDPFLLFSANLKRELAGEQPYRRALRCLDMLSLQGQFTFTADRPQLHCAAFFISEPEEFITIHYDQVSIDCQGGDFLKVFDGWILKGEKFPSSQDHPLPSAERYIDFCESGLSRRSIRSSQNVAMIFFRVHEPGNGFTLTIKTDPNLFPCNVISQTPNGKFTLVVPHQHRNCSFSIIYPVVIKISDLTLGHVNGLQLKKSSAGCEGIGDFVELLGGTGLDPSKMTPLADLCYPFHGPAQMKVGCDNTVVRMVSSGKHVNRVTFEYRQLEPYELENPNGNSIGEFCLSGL
# Large T antigen = Large T antigen (Simian virus 40, UniProt P03070); format: functional, Betapolyomavirus macacae;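 also: Confirmatory-stage PubChem screen for compounds that inhibit SV40 T antigen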
# [4] = Shn3 3'UTR reporter inhibitors, dose response, cell-based, Clone20 osteoblasts, firefly luciferase, cherry-picked (AID 624132); format: functional;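 also: firefly luciferase luminescence from reporter carrying the Shn3 3'UTR in osteoblasts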
# [5] = control 3'UTR Renilla luciferase suppression, dose response, counter-screen for Shn3 inhibitor project, cell-based, Clone20-Shn3RL, cherry-picked (AID 624133); format: functional
# Fatty acid synthase [6] = biological target: T4, Fatty acid synthase (Homo sapiens, UniProt P49327); assay: FAS thioesterase domain inhibitors, dose response, biochemical, endpoint fluorescence intensity, uHTS hits (AID 624327); format: functional;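 also: fluorescence from hydrolysis of an O-methyl fluorescein acyl ester substrate by the enzyme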
# Fatty acid synthase [7] = biological target: T4, Fatty acid synthase; assay: FAS thioesterase domain inhibitors, dose response, biochemical, kinetic fluorescence intensity (AID 624326); format: functional;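 also: rate of fluorescence rise from hydrolysis of a fluorogenic O-methyl fluorescein ester substrate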
# cells = format: functional
# [8] = biological target: T5, Ubiquitin-conjugating enzyme E2 N (Homo sapiens, UniProt P61088); format: functional;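 also: Dose-response confirmation in a TR-FRET assay detecting UBC13-driven polyubiquitin chain formation, inhibition measured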
# T5 sequence (P61088 whole entry): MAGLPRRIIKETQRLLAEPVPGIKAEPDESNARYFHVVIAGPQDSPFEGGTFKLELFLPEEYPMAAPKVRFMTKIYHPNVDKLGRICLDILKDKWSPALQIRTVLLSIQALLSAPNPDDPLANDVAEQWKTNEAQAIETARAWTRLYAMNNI
# [9] = biological target: T6, Carboxy-terminal domain RNA polymerase II polypeptide A small phosphatase 1 (Homo sapiens, UniProt Q9GZU7); assay: inhibitors of CTDSP1, concentration-response testing, biochemical assay, absorbance-based, actives from ultra-high-throughput screening (AID 540297); format: functional
# T6 sequence (Q9GZU7 whole entry): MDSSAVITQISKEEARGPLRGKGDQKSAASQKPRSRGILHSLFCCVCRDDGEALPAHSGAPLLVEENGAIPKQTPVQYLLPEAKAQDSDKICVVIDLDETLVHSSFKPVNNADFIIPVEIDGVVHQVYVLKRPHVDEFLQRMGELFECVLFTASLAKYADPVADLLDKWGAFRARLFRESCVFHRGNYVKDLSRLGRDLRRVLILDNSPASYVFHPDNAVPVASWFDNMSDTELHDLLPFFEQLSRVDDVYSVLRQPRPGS
# [10] = inhibitors of intracellular T. cruzi replication, confirmation, NIH3T3 host cells, beta-gal luminescence (AID 2044); format: functional, cell-based;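 also: intracellular parasites grown in NIH/3T3 mouse fibroblasts as host cells; luminescent beta-galactosidase reporter signal from transgenic T. cruzi replicating inside host cells; inhibitors lower the luminescence signal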
# [11] = cytotoxicity toward NIH3T3 fibroblasts, dose response, counter-screen, cell-based, ATP luminescence, mouse fibroblasts (AID 2010); format: functional;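 also: cells exposed to compound for about 90 hours before reading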
# [12] = P. falciparum Dd2 growth inhibitors, dose response, SYBR Green, cherry-picked samples (AID 1159567); format: functional, cell-based
# [13] = biological target: T7, Rac GTPase-activating protein 1 (Homo sapiens, UniProt Q9H0H5); assay: MgcRacGAP GTPase-activating activity inhibitors, confirmation, biochemical, ADP Hunter fluorescence, primary and confirmatory (AID 624330); format: functional
# T7 sequence (Q9H0H5 whole entry): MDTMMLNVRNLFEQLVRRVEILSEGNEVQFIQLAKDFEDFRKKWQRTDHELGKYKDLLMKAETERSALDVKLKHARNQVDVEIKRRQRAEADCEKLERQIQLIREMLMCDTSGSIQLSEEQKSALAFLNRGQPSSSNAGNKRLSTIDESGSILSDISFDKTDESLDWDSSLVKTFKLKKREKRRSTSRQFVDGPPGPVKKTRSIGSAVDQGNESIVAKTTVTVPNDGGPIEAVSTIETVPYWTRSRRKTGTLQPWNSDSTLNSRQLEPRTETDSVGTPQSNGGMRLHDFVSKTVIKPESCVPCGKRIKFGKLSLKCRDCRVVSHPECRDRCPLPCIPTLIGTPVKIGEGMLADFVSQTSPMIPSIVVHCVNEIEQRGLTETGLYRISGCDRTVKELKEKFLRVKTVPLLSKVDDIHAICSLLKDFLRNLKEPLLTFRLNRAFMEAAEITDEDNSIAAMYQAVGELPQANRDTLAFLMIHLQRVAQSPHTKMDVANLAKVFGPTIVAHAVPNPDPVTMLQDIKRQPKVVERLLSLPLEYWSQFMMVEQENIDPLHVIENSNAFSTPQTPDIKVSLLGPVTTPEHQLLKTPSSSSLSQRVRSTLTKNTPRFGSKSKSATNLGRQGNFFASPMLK
# Sequence of Large T antigen (P03070 whole entry): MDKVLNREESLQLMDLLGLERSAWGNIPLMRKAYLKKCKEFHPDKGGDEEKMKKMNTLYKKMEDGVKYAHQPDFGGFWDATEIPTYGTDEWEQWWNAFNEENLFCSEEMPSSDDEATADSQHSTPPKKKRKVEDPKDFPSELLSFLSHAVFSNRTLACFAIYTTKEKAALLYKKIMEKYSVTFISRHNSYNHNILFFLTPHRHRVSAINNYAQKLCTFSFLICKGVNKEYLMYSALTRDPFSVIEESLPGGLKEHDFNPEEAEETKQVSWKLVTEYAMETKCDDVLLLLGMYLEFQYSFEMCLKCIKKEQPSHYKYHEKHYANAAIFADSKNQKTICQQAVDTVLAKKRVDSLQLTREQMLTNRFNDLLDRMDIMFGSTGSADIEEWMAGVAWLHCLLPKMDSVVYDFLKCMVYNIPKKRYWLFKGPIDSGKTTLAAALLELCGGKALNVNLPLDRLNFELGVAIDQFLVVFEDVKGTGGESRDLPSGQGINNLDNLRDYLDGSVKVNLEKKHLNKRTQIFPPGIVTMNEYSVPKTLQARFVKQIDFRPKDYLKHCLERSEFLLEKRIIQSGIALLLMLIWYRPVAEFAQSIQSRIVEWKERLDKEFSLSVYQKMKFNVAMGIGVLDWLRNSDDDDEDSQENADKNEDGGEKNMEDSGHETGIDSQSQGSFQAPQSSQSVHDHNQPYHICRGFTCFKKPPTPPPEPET
# T4 sequence (P49327 whole entry, the tested form may be a part): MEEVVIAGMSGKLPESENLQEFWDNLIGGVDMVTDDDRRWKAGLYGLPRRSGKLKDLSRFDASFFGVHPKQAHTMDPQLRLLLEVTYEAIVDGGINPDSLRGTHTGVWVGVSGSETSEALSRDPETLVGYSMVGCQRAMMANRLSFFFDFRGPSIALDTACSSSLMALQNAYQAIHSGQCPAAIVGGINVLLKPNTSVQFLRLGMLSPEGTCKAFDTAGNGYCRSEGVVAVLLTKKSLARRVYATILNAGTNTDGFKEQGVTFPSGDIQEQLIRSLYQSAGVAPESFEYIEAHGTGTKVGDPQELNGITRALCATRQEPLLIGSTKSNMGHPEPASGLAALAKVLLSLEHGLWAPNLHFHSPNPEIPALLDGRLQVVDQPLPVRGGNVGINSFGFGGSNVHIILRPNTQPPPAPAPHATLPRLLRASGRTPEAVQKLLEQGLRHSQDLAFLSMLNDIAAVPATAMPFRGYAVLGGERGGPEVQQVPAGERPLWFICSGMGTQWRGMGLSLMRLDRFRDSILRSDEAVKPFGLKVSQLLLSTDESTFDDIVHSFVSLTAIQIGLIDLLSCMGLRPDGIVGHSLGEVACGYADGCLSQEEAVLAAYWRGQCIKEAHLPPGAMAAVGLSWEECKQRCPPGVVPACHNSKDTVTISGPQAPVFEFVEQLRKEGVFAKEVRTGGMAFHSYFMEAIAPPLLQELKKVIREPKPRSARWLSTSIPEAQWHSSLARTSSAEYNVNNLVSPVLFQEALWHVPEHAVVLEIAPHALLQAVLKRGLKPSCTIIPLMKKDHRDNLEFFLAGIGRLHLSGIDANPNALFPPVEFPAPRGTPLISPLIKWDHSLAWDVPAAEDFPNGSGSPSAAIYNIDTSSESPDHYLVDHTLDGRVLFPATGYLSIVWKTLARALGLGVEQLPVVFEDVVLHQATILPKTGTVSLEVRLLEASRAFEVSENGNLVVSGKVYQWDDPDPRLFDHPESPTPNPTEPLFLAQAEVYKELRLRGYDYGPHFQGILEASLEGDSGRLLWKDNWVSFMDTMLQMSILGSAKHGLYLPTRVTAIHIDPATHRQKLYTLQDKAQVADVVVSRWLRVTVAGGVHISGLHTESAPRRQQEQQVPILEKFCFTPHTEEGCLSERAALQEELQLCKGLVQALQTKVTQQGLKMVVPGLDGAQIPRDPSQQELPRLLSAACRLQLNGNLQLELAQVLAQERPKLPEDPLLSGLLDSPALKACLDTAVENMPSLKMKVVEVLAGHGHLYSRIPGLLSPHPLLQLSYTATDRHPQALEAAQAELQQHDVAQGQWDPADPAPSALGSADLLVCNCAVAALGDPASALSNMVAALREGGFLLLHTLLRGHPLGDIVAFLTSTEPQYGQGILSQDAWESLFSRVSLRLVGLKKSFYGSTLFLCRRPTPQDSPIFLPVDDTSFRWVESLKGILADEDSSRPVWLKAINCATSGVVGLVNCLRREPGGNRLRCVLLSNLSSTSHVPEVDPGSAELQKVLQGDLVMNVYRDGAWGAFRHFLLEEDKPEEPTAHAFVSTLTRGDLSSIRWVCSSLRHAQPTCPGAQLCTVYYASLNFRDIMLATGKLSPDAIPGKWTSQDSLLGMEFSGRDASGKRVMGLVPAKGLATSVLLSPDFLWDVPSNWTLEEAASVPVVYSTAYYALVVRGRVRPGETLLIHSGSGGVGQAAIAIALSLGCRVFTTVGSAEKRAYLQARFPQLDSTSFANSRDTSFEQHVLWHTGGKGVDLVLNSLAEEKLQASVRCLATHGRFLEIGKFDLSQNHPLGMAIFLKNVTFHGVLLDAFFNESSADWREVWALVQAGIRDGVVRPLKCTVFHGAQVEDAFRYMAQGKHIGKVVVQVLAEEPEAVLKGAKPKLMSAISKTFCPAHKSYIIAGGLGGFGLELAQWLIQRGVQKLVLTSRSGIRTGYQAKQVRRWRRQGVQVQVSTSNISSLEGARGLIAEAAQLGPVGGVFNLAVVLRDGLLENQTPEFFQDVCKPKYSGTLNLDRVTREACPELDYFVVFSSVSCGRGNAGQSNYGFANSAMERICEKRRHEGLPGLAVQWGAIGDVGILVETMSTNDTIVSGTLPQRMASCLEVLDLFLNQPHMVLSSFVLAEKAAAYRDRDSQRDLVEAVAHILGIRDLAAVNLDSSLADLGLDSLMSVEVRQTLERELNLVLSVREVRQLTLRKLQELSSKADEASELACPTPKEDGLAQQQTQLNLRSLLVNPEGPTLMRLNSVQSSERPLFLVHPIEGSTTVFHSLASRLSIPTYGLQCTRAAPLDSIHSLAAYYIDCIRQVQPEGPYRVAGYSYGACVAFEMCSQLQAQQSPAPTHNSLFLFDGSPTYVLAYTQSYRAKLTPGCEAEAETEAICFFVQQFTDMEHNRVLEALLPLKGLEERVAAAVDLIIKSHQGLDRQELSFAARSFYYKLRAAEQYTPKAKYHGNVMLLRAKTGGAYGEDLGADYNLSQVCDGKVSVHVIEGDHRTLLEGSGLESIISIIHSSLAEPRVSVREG
smiles,measurement,setting,value
C[C@H]1CN([C@@H](C)CO)C(=O)c2cccc(NC(=O)CCCCCC(=O)Nc3ccccc3N)c2O[C@@H]1CN(C)Cc1ccc(-c2ccccc2)cc1,AC50,[1],1.71 µM (active)
Cc1ccc(N2C(=O)NC(=O)/C(=C/Nc3ccc(S(=O)(=O)N(C)C)cc3)C2=O)cc1,IC50,Protein skinhead-1,> 100 µM (inactive)
C[C@H](CO)N1C[C@H](C)[C@@H](CN(C)Cc2ccc(C(=O)Nc3ccccc3N)cc2)Oc2c(NS(=O)(=O)c3ccc(Cl)cc3)cccc2C1=O,AC50,[1],1.41 µM (active)
COc1ccc(CN(C)C[C@@H]2Oc3c(NC(=O)Nc4ccc(C(F)(F)F)cc4)cccc3C(=O)N([C@H](C)CO)C[C@@H]2C)cc1,AC50,[1],1.42 µM (active)
CCCNC(=O)c1ccc2snnc2c1,IC50,Protein skinhead-1,> 100 µM (inactive)
O=C1NC(=O)N(c2ccc(F)cc2)C(=O)/C1=C/c1c[nH]c2ccccc12,EC50,[2],> 300 µM (inconclusive)
same,EC50,[3],10.3 µM (active)
COc1ccccc1NC(=O)Oc1ccc(NC(=O)c2ccco2)cc1,IC50,Large T antigen,22.9 µM (active)
Cc1cc(C(=O)Nc2cccc3c2O[C@@H](CN(C)Cc2ccc(-c4ccccc4)cc2)[C@@H](C)CN([C@H](C)CO)C3=O)n(C)n1,AC50,[1],5.16 µM (active)
Cc1ccccc1NC(=O)c1cc(N)ccc1N1CCCCC1,IC50,Large T antigen,18.9 µM (active)
COc1ccc(OC)c(C(c2nnnn2Cc2ccccc2)N2CCN(C3CCCCC3)CC2)c1 (centres undefined),AC50,[4],> 70 µM (inactive)
same,AC50,[5],30.4 µM (active)
CCc1cc2c(=O)oc(-c3ccccc3F)nc2s1,IC50,Fatty acid synthase [6],2.48 µM (active)
same,IC50,Fatty acid synthase [7],1.62 µM (active)
CCNC(=O)C1(C)CCCN1C(=O)c1ccc(C#N)cc1 (centres undefined),IC50,Protein skinhead-1,> 100 µM (inactive)
CCOCC(=O)Nc1ccc(C)c(Cl)c1,IC50,cells,37.1 µM (active)
same,IC50,Protein skinhead-1,> 100 µM (inactive)
COC(=O)c1cc(C(=O)Nc2nnc(CC(C)(C)C)s2)cc([N+](=O)[O-])c1,IC50,Fatty acid synthase [6],12.7 µM (active)
same,IC50,Fatty acid synthase [7],11.2 µM (active)
O=C(c1cc2cc([N+](=O)[O-])ccc2oc1=O)N1CCN(C2CCCCC2)CC1,IC50,Fatty acid synthase [6],13.9 µM (active)
same,IC50,Fatty acid synthase [7],9.68 µM (active)
COc1ccccc1C(=O)Nc1c2c(nn1-c1cccc(C)c1C)CS(=O)(=O)C2,IC50,[8],> 20 µM (inactive)
same,IC50,[9],10.1 µM (active)
C[C@H]1CN([C@@H](C)CO)C(=O)c2cc(NS(=O)(=O)c3ccc(Cl)cc3)ccc2O[C@H]1CN(C)Cc1ccc(C(=O)Nc2ccccc2N)cc1,AC50,[1],1.96 µM (active)
c1ccc(-c2ccc(OCCCNC3CCCC3)cc2)cc1,EC50,[10],1.03 µM (active)
same,EC50,[11],> 60 µM (not active)
same,IC50,Protein skinhead-1,20.8 µM (active)
NC1=NC[C@H](c2ccccc2)N1CCc1cc(C(F)(F)F)cc(C(F)(F)F)c1,IC50,[8],> 20 µM (inactive)
O=C(CCn1c(=S)[nH]c2ccccc2c1=O)NCCCN1CCCC1=O,IC50,Protein skinhead-1,> 100 µM (inactive)
COc1ccc(/C=C(\NC(=O)c2ccc([N+](=O)[O-])cc2)C(=O)N2CCOCC2)cc1,IC50,Fatty acid synthase [6],1.34 µM (active)
same,IC50,Fatty acid synthase [7],0.848 µM (active)
N#CC1=C2SCN(c3ccccc3)CN2C(=O)CC1c1ccccc1Cl (centres undefined),IC50,Large T antigen,36.3 µM (active)
Cc1cccc(N2CCN(C(=O)COc3ccc4ccc(=O)oc4c3)CC2)c1C,IC50,Fatty acid synthase [6],3.84 µM (active)
same,IC50,Fatty acid synthase [7],5.23 µM (active)
CCN(C(=O)COC(=O)c1cc([N+](=O)[O-])ccc1N1CCOCC1)C1CCCCC1,IC50,Fatty acid synthase [6],1.13 µM (active)
same,IC50,Fatty acid synthase [7],4.08 µM (active)
C=CCn1c(SCC(=O)N(CC)C2CCS(=O)(=O)C2)nnc1-c1ccccc1 (centres undefined),IC50,[8],> 20 µM (inactive)
CN1CCc2nc(SCc3ccccc3Br)c(C#N)cc2C1,IC50,Fatty acid synthase [6],7.9 µM (active)
same,IC50,Fatty acid synthase [7],6.01 µM (active)
Cc1cc(OCc2cccc(Cl)c2)c(C)cc1CN1CCOCC1,IC50,Protein skinhead-1,6.33 µM (active)
Cc1ccc(C(=O)Nc2nc(-c3ccc(F)cc3)cs2)o1,IC50,Protein skinhead-1,> 100 µM (inactive)
O=C(CCCCCN1C(=O)c2cccc3cccc(c23)C1=O)NCc1ccco1,IC50,[8],> 20 µM (inactive)
Fc1ccc(-c2nc3ccc(Br)cn3c2Cc2ccccc2C(F)(F)F)cc1,IC50,Protein skinhead-1,> 100 µM (inactive)
O=c1nc2n(c(O)c1C(c1c(O)nc3n(c1=O)CCS3)c1cccc3ccccc13)CCS2 (centres undefined),IC50,Large T antigen,> 100 µM (active)
C[C@H]1CN([C@@H](C)CO)C(=O)c2cc(NC(=O)Nc3cccc4ccccc34)ccc2O[C@@H]1CN(C)Cc1ccc(Oc2ccccc2)cc1,AC50,[1],4.66 µM (active)
same,AC50,[12],7.39 µM (active)
C[C@H]1CN([C@@H](C)CO)C(=O)Cc2cc(NC(=O)Nc3ccc(C(F)(F)F)cc3)ccc2O[C@H]1CN(C)Cc1ccc(C(=O)Nc2ccccc2N)cc1,AC50,[1],2.13 µM (active)
COc1cc(/C=N\NC(=O)C2CC3C=CC2C3)ccc1O (centres undefined),IC50,Large T antigen,13.3 µM (active)
same,IC50,[13],23.4 µM (active)
